Measurements: patent US8822517B2, “Arylosulfonamides for the treatment of CNS diseases” (Adamed SP. Z O.O., priority 2010, dated 2014)

Key:
[1] = biological target: T1, serotoninergic 5-HT1A receptor (Homo sapiens, UniProt P08908); assay: Binding assay 5-HT1A (h), [3H]8-OH-DPAT, HEK-293 cells; parameters: expressed in transfected cells; host or cells: HEK-293 cells; conditions: read-out: 5-HT1A
T1 sequence (P08908 1-422): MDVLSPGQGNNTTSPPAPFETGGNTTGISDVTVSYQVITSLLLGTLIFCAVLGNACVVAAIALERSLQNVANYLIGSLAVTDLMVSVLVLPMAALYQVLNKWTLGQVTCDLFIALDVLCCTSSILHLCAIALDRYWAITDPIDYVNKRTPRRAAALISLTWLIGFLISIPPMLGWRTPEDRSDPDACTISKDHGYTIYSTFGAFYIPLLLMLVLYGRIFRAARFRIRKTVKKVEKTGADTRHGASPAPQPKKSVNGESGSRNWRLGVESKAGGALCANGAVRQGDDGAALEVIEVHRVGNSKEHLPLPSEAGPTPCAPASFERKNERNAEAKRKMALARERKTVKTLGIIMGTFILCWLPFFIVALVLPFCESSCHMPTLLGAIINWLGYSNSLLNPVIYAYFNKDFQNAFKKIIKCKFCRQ
In short: (§1)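 Radioligand displacement at 1×10^−6 M compound, with detection by scintillation counting. Nonspecific signal is measured using an excess of non-radioactive ligand.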

[2] = biological target: serotoninergic 5-HT7 receptor (Homo sapiens, UniProt P34969); assay: Binding assay 5-HT7 (h), [3H]LSD, CHO cells; parameters: expressed in transfected cells; host or cells: CHO cells; conditions: read-out: 5-HT7
Sequence of serotoninergic 5-HT7 receptor (P34969 whole entry): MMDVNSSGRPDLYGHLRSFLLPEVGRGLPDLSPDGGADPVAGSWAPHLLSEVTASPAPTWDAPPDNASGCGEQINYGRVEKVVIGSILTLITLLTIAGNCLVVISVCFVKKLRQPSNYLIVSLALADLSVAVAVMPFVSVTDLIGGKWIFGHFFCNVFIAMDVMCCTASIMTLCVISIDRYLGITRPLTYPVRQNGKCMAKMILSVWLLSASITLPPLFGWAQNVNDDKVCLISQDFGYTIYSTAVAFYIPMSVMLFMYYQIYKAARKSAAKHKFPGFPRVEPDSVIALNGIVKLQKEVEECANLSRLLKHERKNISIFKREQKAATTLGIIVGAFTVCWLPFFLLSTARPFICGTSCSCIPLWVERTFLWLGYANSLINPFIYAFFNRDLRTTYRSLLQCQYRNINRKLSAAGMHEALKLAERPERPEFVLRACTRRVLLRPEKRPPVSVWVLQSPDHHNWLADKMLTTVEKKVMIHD
In short: as §1

dopaminergic D3 receptor = dopaminergic D3 receptor (Homo sapiens, UniProt P35462); assay: Binding assay D3 (h), [3H]methyl-spiperone, CHO cells; parameters: expressed in transfected cells; host or cells: CHO cells; conditions: read-out: D3 [%]
Sequence of dopaminergic D3 receptor (P35462 whole entry): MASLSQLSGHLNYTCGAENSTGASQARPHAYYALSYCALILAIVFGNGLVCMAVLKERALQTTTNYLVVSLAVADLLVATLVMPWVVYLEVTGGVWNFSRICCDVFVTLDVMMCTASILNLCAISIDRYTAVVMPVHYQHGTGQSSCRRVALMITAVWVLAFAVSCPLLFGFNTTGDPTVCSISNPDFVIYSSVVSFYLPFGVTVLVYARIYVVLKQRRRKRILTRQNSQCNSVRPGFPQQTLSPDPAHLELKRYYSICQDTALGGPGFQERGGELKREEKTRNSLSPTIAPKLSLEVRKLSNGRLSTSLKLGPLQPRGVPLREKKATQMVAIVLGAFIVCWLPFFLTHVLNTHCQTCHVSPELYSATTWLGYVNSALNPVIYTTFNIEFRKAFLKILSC
In short: as §1

[3] = biological target: serotoninergic 5-HT2A receptor (Homo sapiens, UniProt P28223); assay: Binding assay 5-HT2A (h), [3H]ketanserin, HEK-293 cells; parameters: expressed in transfected cells; host or cells: HEK-293 cells; conditions: read-out: 5-HT2A
Sequence of serotoninergic 5-HT2A receptor (P28223 whole entry): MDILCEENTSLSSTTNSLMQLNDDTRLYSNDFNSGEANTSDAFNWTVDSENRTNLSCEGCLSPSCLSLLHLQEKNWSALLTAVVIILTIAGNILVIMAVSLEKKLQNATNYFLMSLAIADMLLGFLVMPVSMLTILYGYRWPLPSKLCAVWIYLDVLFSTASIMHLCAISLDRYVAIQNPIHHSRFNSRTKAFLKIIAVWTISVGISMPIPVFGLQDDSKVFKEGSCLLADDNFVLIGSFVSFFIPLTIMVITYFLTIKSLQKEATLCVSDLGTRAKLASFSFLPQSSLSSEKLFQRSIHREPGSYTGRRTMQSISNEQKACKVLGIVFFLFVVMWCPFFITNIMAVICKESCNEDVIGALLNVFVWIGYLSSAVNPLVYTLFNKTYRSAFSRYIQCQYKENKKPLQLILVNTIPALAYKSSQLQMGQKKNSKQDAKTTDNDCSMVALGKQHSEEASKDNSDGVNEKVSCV
In short: as §1

[4] = biological target: T2, serotonine transporter (SERT) receptor (Homo sapiens, UniProt P31645); assay: Binding assay SERT (h), [3H]imipramine, CHO cells; conditions: read-out: SERT [%]
T2 construct: expressed in transfected cells; host or cells: CHO cells
T2 sequence (P31645 whole entry): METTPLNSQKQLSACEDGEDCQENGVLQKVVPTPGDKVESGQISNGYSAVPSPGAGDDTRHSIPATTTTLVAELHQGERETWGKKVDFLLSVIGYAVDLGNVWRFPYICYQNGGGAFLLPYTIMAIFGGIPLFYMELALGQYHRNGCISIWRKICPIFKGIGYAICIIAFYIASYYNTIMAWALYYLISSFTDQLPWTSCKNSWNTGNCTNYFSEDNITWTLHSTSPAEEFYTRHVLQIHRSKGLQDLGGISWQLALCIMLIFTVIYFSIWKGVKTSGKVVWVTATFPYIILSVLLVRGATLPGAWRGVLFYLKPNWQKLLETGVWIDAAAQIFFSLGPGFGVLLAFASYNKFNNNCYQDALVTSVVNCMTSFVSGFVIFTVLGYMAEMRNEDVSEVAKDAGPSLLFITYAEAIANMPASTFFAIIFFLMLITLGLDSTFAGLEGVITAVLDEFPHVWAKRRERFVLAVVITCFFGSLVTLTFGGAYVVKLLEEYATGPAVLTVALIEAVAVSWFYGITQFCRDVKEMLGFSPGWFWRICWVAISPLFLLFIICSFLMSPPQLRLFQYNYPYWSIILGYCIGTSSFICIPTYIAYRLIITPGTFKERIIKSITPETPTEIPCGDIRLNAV
In short: as §1

adrenergic α1 receptor = assay: Binding assay α1 (non-selective), [3H]prazosin, rat cerebral cortex; conditions: percent inhibition of control specific binding; compounds tested at 1×10^−6 M
In short: as §1

[5] = biological target: serotoninergic 5-HT6 receptor (Homo sapiens, UniProt P50406); assay: Binding assay 5-HT6 (h), [3H]LSD, CHO cells; parameters: expressed in transfected cells; host or cells: CHO cells; conditions: read-out: 5-HT6
Sequence of serotoninergic 5-HT6 receptor (P50406 whole entry): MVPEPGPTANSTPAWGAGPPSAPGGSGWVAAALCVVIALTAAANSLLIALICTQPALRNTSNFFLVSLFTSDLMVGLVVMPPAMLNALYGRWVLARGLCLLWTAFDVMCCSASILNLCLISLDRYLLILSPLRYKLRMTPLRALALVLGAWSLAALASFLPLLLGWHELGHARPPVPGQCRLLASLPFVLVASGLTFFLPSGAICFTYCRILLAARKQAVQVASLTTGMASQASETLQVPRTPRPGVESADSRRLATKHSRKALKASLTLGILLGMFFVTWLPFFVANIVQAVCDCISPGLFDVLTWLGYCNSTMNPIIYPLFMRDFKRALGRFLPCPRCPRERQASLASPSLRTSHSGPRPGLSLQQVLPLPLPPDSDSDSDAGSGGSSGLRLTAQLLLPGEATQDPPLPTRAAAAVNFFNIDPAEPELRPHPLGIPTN
In short: as §1

dopaminergic D2 receptor = dopaminergic D2 receptor (Homo sapiens, UniProt P14416); assay: Binding assay D2S (h), [3H]methyl-spiperone, HEK-293 cells; parameters: expressed in transfected cells; host or cells: HEK-293 cells; conditions: read-out: D2 [%]
Sequence of dopaminergic D2 receptor (P14416 1-414 isoform P14416-2): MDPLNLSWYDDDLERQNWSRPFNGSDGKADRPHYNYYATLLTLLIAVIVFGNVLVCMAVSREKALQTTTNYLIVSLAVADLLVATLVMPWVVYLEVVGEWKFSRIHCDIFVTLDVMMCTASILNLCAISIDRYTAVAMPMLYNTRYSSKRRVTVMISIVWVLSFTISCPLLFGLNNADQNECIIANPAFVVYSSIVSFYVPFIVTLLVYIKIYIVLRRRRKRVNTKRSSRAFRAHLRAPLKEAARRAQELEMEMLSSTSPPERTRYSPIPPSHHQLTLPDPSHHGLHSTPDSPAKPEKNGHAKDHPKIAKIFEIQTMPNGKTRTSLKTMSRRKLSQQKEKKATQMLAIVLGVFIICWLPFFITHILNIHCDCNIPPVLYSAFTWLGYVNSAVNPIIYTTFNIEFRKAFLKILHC
In short: as §1

| Compound | inhibition at 1 µM [1] [%] | inhibition at 1 µM [2] [%] | inhibition at 1 µM (dopaminergic D3 receptor) [%] | inhibition at 1 µM [3] [%] | inhibition at 1 µM [4] [%] | α1 [%] (adrenergic α1 receptor) | inhibition at 1 µM [5] [%] | inhibition at 1 µM (dopaminergic D2 receptor) [%] |
| --- | --- | --- | --- | --- | --- | --- | --- | --- |
| O=S(=O)(NCCCCN1CCN(c2cccc3c2OCCO3)CC1)c1cc2ccc(Cl)cc2s1 [Compound 401, 6-Chloro-N-[4-[4-(2,3-dihydro-1,4-benzodioxin-5-yl)piperazin-1-yl]butyl]benzothiophene-2-sulphonamide] | 103 | 91 | 95 | 79 | -8 | 90 | 27 | 84 |
| O=S(=O)(NCCCCN1CCN(c2cccc3c2OCCO3)CC1)c1ccc2cn[nH]c2c1 [Compound 402, N-[4-[4-(2,3-Dihydro-1,4-benzodioxin-5-yl)piperazin-1-yl]butyl]-1H-indazole-6-sulphonamide] | 102 | 100 | 89 | 76 | 16 | 94 | 1 | 68 |
| O=c1[nH]c2ccc(S(=O)(=O)NCCCCN3CCN(c4cccc5c4OCCO5)CC3)cc2o1 [Compound 403, N-[4-[4-(2,3-Dihydro-1,4-benzodioxin-5-yl)piperazin-1-yl]butyl]-2-oxo-3H-1,3-benzoxazole-6-sulphonamide] | 98 | 95 | 99 | 64 | -9 | 98 | -21 | 85 |
| O=S(=O)(NCCCCN1CCN(c2cccc3c2OCCO3)CC1)c1ccc2c(c1)OCO2 [Compound 404, N-[4-[4-(2,3-Dihydro-1,4-benzodioxin-5-yl)piperazin-1-yl]butyl]-1,3-benzodioxole-5-sulphonamide] | 97 | 96 | 92 | 55 | -9 | 93 | 4 | 60 |
| O=S(=O)(NCCCN1CCN(c2cccc3c2OCCO3)CC1)c1cccc2ccccc12 [Compound 405, N-[3-[4-(2,3-Dihydro-1,4-benzodioxin-5-yl)piperazin-1-yl]propyl]naphthalene-1-sulphonamide] | 97 | 93 | 62 | 74 | -5 | 82 | 53 | 68 |
| O=S(=O)(NCCCN1CCN(c2cccc3c2OCCO3)CC1)c1ccc2ccccc2c1 [Compound 406, N-[3-[4-(2,3-Dihydro-1,4-benzodioxin-5-yl)piperazin-1-yl]propyl]naphthalene-2-sulphonamide] | 99 | 92 | 54 | 28 | 10 | 77 | 54 | 59 |
| O=S(=O)(NCCCN1CCN(c2cccc3c2OCCO3)CC1)c1ccc2cc(Cl)ccc2c1 [Compound 407, 6-Chloro-N-[3-[4-(2,3-dihydro-1,4-benzodioxin-5-yl)piperazin-1-yl]propyl]naphthalene-2-sulphonamide] | 88 | 102 | 84 | 50 | -2 | 72 | 37 | 58 |
| O=S(=O)(NCCCN1CCN(c2cccc3c2OCCO3)CC1)c1ccc(F)cc1 [Compound 408, N-[3-[4-(2,3-Dihydro-1,4-benzodioxin-5-yl)piperazin-1-yl]propyl]-4-fluorobenzenesulphonamide] | 101 | 83 | 70 | -50 | -18 | 70 | 35 | 40 |
| O=S(=O)(NCCCN1CCN(c2cccc3c2OCCO3)CC1)c1cccc(F)c1 [Compound 409, N-[3-[4-(2,3-Dihydro-1,4-benzodioxin-5-yl)piperazin-1-yl]propyl]-3-fluorobenzenesulphonamide] | 81 | 91 | 85 | 66 | 2 | 81 | -9 | 79 |
| O=S(=O)(NCCCN1CCN(c2cccc3c2OCCO3)CC1)c1cccc(Cl)c1 [Compound 411, 3-Chloro-N-[3-[4-(2,3-dihydro-1,4-benzodioxin-5-yl)piperazin-1-yl]propyl]benzenesulphonamide] | 95 | 89 | 52 | 4 | 12 | 87 | 41 | 40 |
| Cc1cccc(S(=O)(=O)NCCCN2CCN(c3cccc4c3OCCO4)CC2)c1 [Compound 414, N-[3-[4-(2,3-Dihydro-1,4-benzodioxin-8-yl)piperazin-1-yl]propyl]-3-methylbenzenesulphonamide] | 98 | 94 | 81 | 76 | 18 | 88 | -15 | 48 |
| O=S(=O)(NCCCN1CCN(c2cccc3c2OCCO3)CC1)c1ccc(-c2ccccc2)cc1 [Compound 415, N-[3-[4-(2,3-Dihydro-1,4-benzodioxin-5-yl)piperazin-1-yl]propyl]-4-phenylbenzenesulphonamide] | 96 | 92 | 76 | 25 | -5 | 78 | 15 | 58 |
| O=S(=O)(NCCCN1CCN(c2cccc3c2OCCO3)CC1)c1csc2ccccc12 [Compound 416, N-[3-[4-(2,3-Dihydro-1,4-benzodioxin-5-yl)piperazin-1-yl]propyl]benzothiophene-3-sulphonamide] | 101 | 99 | 56 | 58 | -4 | 81 | 55 | 59 |
| O=S(=O)(NCCCN1CCN(c2cccc3c2OCCO3)CC1)c1ccc2c(c1)CCO2 [Compound 417, N-[3-[4-(2,3-Dihydro-1,4-benzodioxin-5-yl)piperazin-1-yl]propyl]-2,3-dihydrobenzofuran-5-sulphonamide] | 100 | 62 | 67 | -48 | -11 | 73 | 24 | 68 |
| Cc1cccc(S(=O)(=O)NCCCN2CCN(c3cccc4[nH]c(=O)[nH]c34)CC2)c1 [Compound 426, 3-Methyl-N-[3-[4-(2-oxo-1,3-dihydrobenzimidazol-4-yl)piperazin-1-yl]propyl]benzenesulphonamide] | 79 | 85 | 94 | 20 | -18 | 67 | -4 | 28 |
